Reference: ChEMBL document CHEMBL1135600, “Novel tricyclic-alpha-alkyloxyphenylpropionic acids: dual PPARalpha/gamma agonists with hypolipidemic and antidiabetic activity” (J Med Chem, 2002)
Where “and” joins values, the source holds several entries; their conditions need not be identical. Identical values can stand only once. Calls of active or inactive are those of the source. No cut-off for these calls is given here.

Columns and labels:
[1] = Clearance after oral administration in rat; assay type: ADME, organism-based; settings: in vivo
[2] = Oral bioavailability in rat; assay type: ADME, organism-based; settings: in vivo
[3] = Volume of distribution during steady state in rat; assay type: ADME, organism-based; settings: in vivo, read-out: Vss
[4] = Maximum plasma concentration after oral administration at a dose 2.2 mg/kg in rat; assay type: ADME, organism-based; parameters: dose 2.2 mg/kg, route oral
[5] = Area under blood glucose time curve after OGTT on the 9th day of treatment; assay type: ADME, tissue-based
[6] = species: Mus musculus; experiment: Maximum achieved blood glucose reduction relative to vehicle treated control group; assay type: functional
[7] = species: Mus musculus; experiment: Maximum achieved triglycerides reduction relative to vehicle treated control group; assay type: functional
[8] = species: Mus musculus; experiment: Minimum concentration which produces the desired nonfasting blood glucose levels after 7 days in 50% of the treated mice.; assay type: functional; settings: 168 h
[9] = species: Mus musculus; experiment: Minimum concentration which produces the desired nonfasting triglyceride levels after 7 days in 50% of the treated male db/db mice.; assay type: functional; settings: 168 h
[10] = species: Mus musculus; experiment: Maximum achieved insulin reduction relative to vehicle treated control group; NE is Not Effective.; assay type: functional, organism-based
[11] = target: T1, Peroxisome proliferator-activated receptor alpha (Homo sapiens, UniProt Q07869); experiment: In vitro transactivation using receptor transactivation assay against hPPAR alpha; assay type: functional
T1 sequence (Q07869 whole entry): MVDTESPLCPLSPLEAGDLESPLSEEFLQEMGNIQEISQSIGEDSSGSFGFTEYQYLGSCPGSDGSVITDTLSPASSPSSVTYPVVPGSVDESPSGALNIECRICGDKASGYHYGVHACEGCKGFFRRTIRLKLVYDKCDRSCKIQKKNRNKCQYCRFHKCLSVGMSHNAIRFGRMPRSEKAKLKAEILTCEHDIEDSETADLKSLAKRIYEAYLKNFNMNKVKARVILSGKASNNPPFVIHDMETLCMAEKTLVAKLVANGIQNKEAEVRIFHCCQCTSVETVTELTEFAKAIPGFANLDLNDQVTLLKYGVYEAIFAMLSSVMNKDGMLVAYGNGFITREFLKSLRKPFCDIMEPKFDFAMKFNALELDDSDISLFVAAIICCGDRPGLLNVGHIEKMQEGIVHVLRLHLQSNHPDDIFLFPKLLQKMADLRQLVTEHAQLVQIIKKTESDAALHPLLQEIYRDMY

[12] = target: T2, Peroxisome proliferator-activated receptor gamma (Homo sapiens, UniProt P37231)
T2 sequence (P37231 whole entry): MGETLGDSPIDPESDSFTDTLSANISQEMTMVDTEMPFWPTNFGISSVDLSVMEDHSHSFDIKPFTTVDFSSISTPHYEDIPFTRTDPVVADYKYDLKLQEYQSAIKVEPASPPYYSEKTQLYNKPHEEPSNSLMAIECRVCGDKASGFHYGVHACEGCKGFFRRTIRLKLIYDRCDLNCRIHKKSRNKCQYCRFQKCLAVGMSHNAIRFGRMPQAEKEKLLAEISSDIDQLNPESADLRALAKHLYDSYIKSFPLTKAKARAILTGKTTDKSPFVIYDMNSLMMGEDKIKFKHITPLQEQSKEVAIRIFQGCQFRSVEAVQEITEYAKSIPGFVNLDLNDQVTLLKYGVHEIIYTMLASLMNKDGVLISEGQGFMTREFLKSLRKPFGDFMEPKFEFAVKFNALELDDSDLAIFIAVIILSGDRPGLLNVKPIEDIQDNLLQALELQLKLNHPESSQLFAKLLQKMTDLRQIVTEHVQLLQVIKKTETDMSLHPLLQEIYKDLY
Description: In vitro transactivation using receptor transactivation assay against hPPAR gamma

[13] = target: T3, Peroxisome proliferator-activated receptor delta (Homo sapiens, UniProt Q03181); experiment: In vitro transcriptional activation of hPPAR delta; assay type: functional
T3 sequence (Q03181 whole entry): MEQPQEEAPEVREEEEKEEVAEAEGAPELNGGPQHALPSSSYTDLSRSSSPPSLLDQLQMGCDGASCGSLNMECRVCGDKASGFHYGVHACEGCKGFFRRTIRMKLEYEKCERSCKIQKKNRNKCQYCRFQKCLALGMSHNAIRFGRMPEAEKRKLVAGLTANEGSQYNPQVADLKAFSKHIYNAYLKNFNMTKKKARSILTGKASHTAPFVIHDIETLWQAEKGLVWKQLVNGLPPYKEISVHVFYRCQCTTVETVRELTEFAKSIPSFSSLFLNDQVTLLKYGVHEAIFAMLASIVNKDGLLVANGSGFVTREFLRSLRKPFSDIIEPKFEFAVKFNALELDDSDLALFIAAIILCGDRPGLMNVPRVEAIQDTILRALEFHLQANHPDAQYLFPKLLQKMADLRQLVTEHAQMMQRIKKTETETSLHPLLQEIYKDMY

[14] = Clearance after oral administration; assay type: ADME, organism-based; settings: in vivo
[15] = Area under plasma concentration time curve after oral administration at a dose 2.2 mg/kg; assay type: ADME, organism-based; parameters: dose 2.2 mg/kg, route oral; settings: in vivo
[16] = Oral bioavailability; assay type: ADME, organism-based; settings: eutheria, in vivo
[17] = Maximum plasma concentration after oral administration at a dose 2.2 mg/kg; assay type: ADME, organism-based; parameters: dose 2.2 mg/kg, route oral; settings: rat
[18] = tested on: Mus musculus; experiment: In vivo % reduction of blood glucose area under curve after oral glucose tolerance test in male db/db mice at 1 mg/kg peroral dose of compound once in a day; assay type: ADME, organism-based; parameters: dose 1 mg/kg, route oral
[19] = tested on: Mus musculus; experiment: In vivo % reduction of blood glucose area under curve after oral glucose tolerance test in male db/db mice at 3 mg/kg peroral dose of compound once in a day; assay type: ADME, organism-based; parameters: dose 3 mg/kg, route oral
[20] = tested on: Mus musculus; experiment: In vivo % reduction of blood glucose area under curve after oral glucose tolerance test in male db/db mice at 1 mg/kg peroral dose of compound thrice a day; assay type: ADME, organism-based; parameters: dose 1 mg/kg, route oral
[21] = tested on: Mus musculus; experiment: In vivo blood glucose area under curve after oral glucose tolerance test in male db/db mice at 0.33 mg/kg peroral dose of compound thrice a day; assay type: ADME, organism-based; parameters: dose 0.33 mg/kg, route oral
[22] = tested on: Mus musculus; experiment: In vivo blood glucose area under curve after oral glucose tolerance test in male db/db mice at 1 mg/kg peroral dose of compound once in a day; assay type: ADME, organism-based; parameters: dose 1 mg/kg, route oral
[23] = tested on: Mus musculus; experiment: In vivo blood glucose area under curve after oral glucose tolerance test in male db/db mice at 1 mg/kg peroral dose of compound thrice a day; assay type: ADME, organism-based; parameters: dose 1 mg/kg, route oral
[24] = tested on: Mus musculus; experiment: In vivo blood glucose area under curve after oral glucose tolerance test in male db/db mice at 3 mg/kg peroral dose of compound once in a day; assay type: ADME, organism-based; parameters: dose 3 mg/kg, route oral
[25] = tested on: Mus musculus; experiment: In vivo % reduction of blood glucose area under curve after oral glucose tolerance test in male db/db mice at 0.33 mg/kg peroral dose of compound thrice a day; assay type: ADME, organism-based; parameters: dose 0.33 mg/kg, route oral
[26] = species: Mus musculus; experiment: Nonfasting blood glucose after 7 days treatment in male db/db mice; assay type: functional; settings: 168 h
[27] = species: Mus musculus; experiment: Nonfasting insulin after 7 days treatment in male db/db mice; assay type: functional; settings: 168 h
[28] = species: Mus musculus; experiment: Nonfasting triglycerides after 7 days treatment in male db/db mice; assay type: functional; settings: 168 h
[29] = tested on: Mus musculus; experiment: In vivo blood glucose level in male db/db mice after administration of 0.33 mg/kg peroral dose of compound thrice a day; assay type: functional; settings: route oral
[30] = tested on: Mus musculus; experiment: In vivo blood glucose level in male db/db mice after administration of 1 mg/kg peroral dose of compound thrice a day; assay type: functional; settings: route oral
[31] = tested on: Mus musculus; experiment: In vivo blood glucose level in male db/db mice after administration of 1 mg/kg peroral dose of compound once in a day; assay type: functional; settings: route oral
[32] = tested on: Mus musculus; experiment: In vivo % reduction of blood glucose level in male db/db mice after administration of 0.33 mg/kg peroral dose of compound thrice a day; assay type: functional; settings: route oral
[33] = tested on: Mus musculus; experiment: In vivo % reduction of blood glucose level in male db/db mice after administration of 1 mg/kg peroral dose of compound once in a day; assay type: functional; settings: route oral
[34] = tested on: Mus musculus; experiment: In vivo % reduction of blood glucose level in male db/db mice after administration of 1 mg/kg peroral dose of compound thrice a day; assay type: functional; settings: route oral
[35] = tested on: Mus musculus; experiment: In vivo % reduction of blood glucose level in male db/db mice after administration of 3 mg/kg peroral dose of compound once in a day; assay type: functional; settings: route oral
[36] = species: Mus musculus; experiment: Maximum achieved insulin reduction relative to vehicle treated control group; assay type: functional
[37] = (§1) Maximum achieved Nonfasted triglycerides reduction relative to vehicle treated control group; assay type: functional
[38] = (§2) Maximum achieved Total cholesterol reduction relative to vehicle treated control group; assay type: functional
[39] = tested on: Mus musculus; experiment: In vivo blood glucose level in male db/db mice after administration of 3 mg/kg peroral dose of compound once in a day; assay type: functional; settings: route oral
[40] = species: Rattus norvegicus; experiment: Effective dose which produces the desired nonfasting triglyceride levels in high cholesterol fed male Sprgue-Dawley rats.; assay type: functional
[41] = species: Rattus norvegicus; experiment: Effective dose which produces the desired total cholesterol levels imale Sprgue-Dawley rats.; assay type: functional
[42] = species: Rattus norvegicus; experiment: as §1; assay type: functional
[43] = species: Rattus norvegicus; experiment: as §2; assay type: functional

SMILES: CCOC(Cc1ccc(OCCCN2c3ccccc3OCOc3ccccc32)cc1)C(=O)O (stereo unspecified)
- CL/F [1]: 13.7 mL/min/kg
- bioavailability [2]: 63%
- Vd [3]: 0.76 L/kg
- Cmax [4]: 730 ng/mL
- AUC ED50 [5]: 6.57 mg/kg
- Max reduction [6]: 17% and 20%
- Max reduction [7]: 13%
- ED50 [8]: 8.11 mg/kg
- ED50 [9]: 18.3 mg/kg
- NE [10]: inactive
- EC50 [11]: 1200 nM
- EC50 [12]: 1200 nM

SMILES: CCO[C@@H](Cc1ccc(OCCn2c3ccc(Br)cc3c3cc(Br)ccc32)cc1)C(=O)O
- EC50 [11]: 220 nM
- EC50 [12]: 44 nM

SMILES: CCCCC[C@H](O)/C=C/[C@@H]1[C@H]2C/C(=C\CCCC(=O)O)C[C@H]2C[C@H]1O [CARBACYCLIN]
- EC50 [11]: 340 nM
- EC50 [13]: 2410 nM

SMILES: CCOC(Cc1ccc(OCC=C2c3ccccc3CCc3ccccc32)cc1)C(=O)O (stereo unspecified)
- EC50 [12]: 12600 nM

SMILES: CCOC(Cc1ccc(OCCC2c3ccccc3Oc3ccccc32)cc1)C(=O)O (stereo unspecified)
- EC50 [11]: 9600 nM
- EC50 [12]: 460 nM

SMILES: CCOC(Cc1ccc(OCCN2c3ccccc3C=Cc3ccccc32)cc1)C(=O)O (stereo unspecified)
- EC50 [11]: 9500 nM
- EC50 [12]: 760 nM

SMILES: CN(CCOc1ccc(CC2SC(=O)NC2=O)cc1)c1ccccn1 (stereo unspecified) [ROSIGLITAZONE]
- CL/F [14]: 2.1 mL/min/kg
- AUC [15]: 14600 ng·h/mL
- bioavailability [16]: 83%
- Cmax [17]: 4420 ng/mL
- AUC ED50 [5]: 0.77 mg/kg
- AUC glu reduction [18]: 14%
- AUC glu reduction [19]: 28%
- AUC glu reduction(mM x min) [20]: 51%
- AUC glu [21]: 2398 mM·min
- AUC glu [22]: 2551 mM·min
- AUC glu [23]: 1423 mM·min
- AUC glu [24]: 2141 mM·min
- AUC glu reduction [25]: 18%
- ED50 [26]: 0.87 mg/kg
- ED50 [27]: 0.07 mg/kg
- ED50 [28]: 0.14 mg/kg
- BG [29]: 11.35 mM
- BG [30]: 13.06 mM
- BG [31]: 16.08 mM
- BG reduction [32]: 47%
- BG reduction [33]: 25%
- BG reduction [34]: 39%
- BG reduction [35]: 45%
- Max reduction [6]: 35% and 16%
- Max reduction [36]: 43%
- Max reduction [7]: 58%
- Reduction [37]: 11%
- Reduction [38]: 24%
- BG [39]: 11.72 mM

SMILES: CCOC(Cc1ccc(OCCN(C)C2c3ccccc3CCc3ccccc32)cc1)C(=O)O (stereo unspecified)
- EC50 [12]: 1700 nM

SMILES: CCOC(Cc1ccc(OCC/C=C2/c3ccccc3COc3ccccc32)cc1)C(=O)O (stereo unspecified)
- EC50 [11]: 12400 nM
- EC50 [12]: 12400 nM

SMILES: CCOC(Cc1ccc(OCCC2c3ccccc3-c3ccccc32)cc1)C(=O)O (stereo unspecified)
- EC50 [11]: 11700 nM
- EC50 [12]: 490 nM

SMILES: CC(C)(Oc1ccc(CCNC(=O)c2ccc(Cl)cc2)cc1)C(=O)O [BEZAFIBRATE]
- ED50 [40]: 16.5 mg/kg
- ED50 [41]: 16.7 mg/kg
- Reduction [42]: 63%
- Reduction [43]: 74%
- EC50 [12]: 73500 nM

SMILES: CCOC(Cc1ccc(OCCCN2c3ccccc3CCc3ccccc32)cc1)C(=O)O (stereo unspecified)
- EC50 [12]: 760 nM
